Here are results for 19 molecules from patent publication US11814367B2, “Inhibitors of glycogen synthase 1 (GYS1) and methods of use thereof” (Maze Therapeutics, Inc., priority 2021, dated 2023).

The target in assay [1] is hGYS2 enzyme (recombinant hGYS2/GN1 protein) (Homo sapiens (Human), UniProt P54840). Description: GYS2 coupled enzyme assay (PK/LDH). It counts as biochemical. To be noted: geometric mean of at least 2 assay runs on separate days, read-out: Avg_IC50. From the text:
The GYS2 coupled enzyme assay is a kinetic biochemical assay that indirectly quantifies the rate of glycogen synthesis by coupling the conversion of GYS2 substrate UDP-glucose into UDP with downstream enzymatic reactions. UDP is released from UDP-glucose as glucose monomers are linked into the growing glycogen strand by GYS2. The coupled assay then proceeds with pyruvate kinase utilizing UDP and phospho(enol)pyruvate (PEP) to form pyruvate. Lactate dehydrogenase then converts pyruvate and NADH into lactate and NAD+. Oxidation of NADH to NAD+ can be measured continuously with a plate reader by quantifying the decrease in NADH absorbance at 340 nm over time.
Compounds that inhibit the hGYS2 enzyme and, subsequently, the downstream conversion of NADH to NAD+, were tested using assay ready plates (black, clear bottom 384 well plates) in a final DMSO reaction volume of 2.5% DMSO. The Assay Buffer contained 50 mM Tris pH 7.5, 2 mM MgCl2, and 100 mM KCl. Fresh stocks of BSA at a final concentration of 0.02% and TCEP 1 mM were added before splitting buffer into hGYS2 buffer and substrate buffer. To the hGYS2 buffer, rabbit liver glycogen was added at a final concentration of 0.2% glycogen. Glucose-6-Phosphate was added at 2 mM, recombinant hGYS2/GN1 protein was added at 200 nM to the substrate buffer, phosphoenolpyruvate (PEP) was added at 2 mM, UDP-Glucose was added at 2 mM, NADH was added at 0.6 mM, and Pyruvate Kinase/Lactate Dehydrogenase was added at 20 units/mL. The reaction was initiated by mixing hGYS2 buffer and substrate buffer at a 1:1 ratio. Both buffers were plated using a liquid dispensing device with hGYS2 buffer plated first followed by the substrate buffer. Plates were spun briefly to eliminate air bubbles and are immediately read in continuous mode at an absorbance of 340 nm, for 10 time points in one-minute increments, for a total of 10 minutes. The slope from these 10 time points was normalized to the positive and negative control wells. The duplicate % inhibition values are then averaged and fit to a Hill equation for dose response according to the Levenberg-Marquardt algorithm with the Hill equation maximum set to 100 and the minimum set to 0.
The results are shown in Table 4 below, which reports the IC50 of each compound. Unless otherwise specified, IC50 values are reported as the geometric mean of at least 2 assay runs on separate days. As shown in the table below, the compounds of the present invention are not potent inhibitors of human GYS2. Unless otherwise specified, IC50 values are reported as the geometric mean of at least two assay runs on separate days. Each run represents the average of a technical replicate, where each compound was assayed twice in the same plate. A superscript “#” symbol in Table 4 indicates results from a single assay run.

Assay [2] has as its target hGYS1 enzyme (recombinant hGYS1/GN1 protein) (Homo sapiens (Human), UniProt P13807). The assay can be described thus: GYS1 coupled enzyme assay (PK/LDH). It counts as biochemical. The following applies: hGYS1/GN1 50 nM, UDP-Glucose 0.8 mM, G6P 1 mM; geometric mean of at least 2 runs.

Chain of hGYS1 enzyme (recombinant hGYS1/GN1 protein) (P13807 whole entry): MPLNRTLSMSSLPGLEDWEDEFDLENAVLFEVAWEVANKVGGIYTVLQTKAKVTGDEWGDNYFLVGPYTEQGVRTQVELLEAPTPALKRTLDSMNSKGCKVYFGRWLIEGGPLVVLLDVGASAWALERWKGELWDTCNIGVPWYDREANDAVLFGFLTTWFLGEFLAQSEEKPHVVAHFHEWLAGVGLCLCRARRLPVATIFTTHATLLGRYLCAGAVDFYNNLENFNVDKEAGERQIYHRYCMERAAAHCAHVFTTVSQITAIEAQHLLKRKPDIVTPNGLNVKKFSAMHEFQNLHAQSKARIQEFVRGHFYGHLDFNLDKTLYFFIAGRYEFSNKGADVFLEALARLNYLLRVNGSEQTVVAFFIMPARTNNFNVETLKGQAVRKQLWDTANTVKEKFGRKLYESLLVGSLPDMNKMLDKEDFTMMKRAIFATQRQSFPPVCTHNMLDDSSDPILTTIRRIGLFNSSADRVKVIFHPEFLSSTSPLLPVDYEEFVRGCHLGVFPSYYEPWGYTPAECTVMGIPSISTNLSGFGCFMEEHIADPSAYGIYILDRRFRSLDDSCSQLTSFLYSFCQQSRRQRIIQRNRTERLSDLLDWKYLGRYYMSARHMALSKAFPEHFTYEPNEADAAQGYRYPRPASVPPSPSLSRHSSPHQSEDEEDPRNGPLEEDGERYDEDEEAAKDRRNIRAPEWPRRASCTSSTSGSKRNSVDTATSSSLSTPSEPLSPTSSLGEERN
Chain of hGYS1 enzyme (recombinant hGYS1/GN1 protein) (P46976 whole entry partner): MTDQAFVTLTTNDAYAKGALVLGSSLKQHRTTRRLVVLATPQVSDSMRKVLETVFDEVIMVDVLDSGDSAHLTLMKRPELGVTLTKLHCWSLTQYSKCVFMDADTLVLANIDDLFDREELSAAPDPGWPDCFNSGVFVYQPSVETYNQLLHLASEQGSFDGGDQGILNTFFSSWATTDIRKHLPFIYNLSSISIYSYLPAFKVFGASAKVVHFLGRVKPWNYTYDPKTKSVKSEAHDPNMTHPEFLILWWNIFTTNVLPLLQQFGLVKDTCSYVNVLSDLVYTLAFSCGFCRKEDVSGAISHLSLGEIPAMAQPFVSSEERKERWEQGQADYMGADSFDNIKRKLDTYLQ
Chain of hGYS2 enzyme (recombinant hGYS2/GN1 protein) (P54840 whole entry): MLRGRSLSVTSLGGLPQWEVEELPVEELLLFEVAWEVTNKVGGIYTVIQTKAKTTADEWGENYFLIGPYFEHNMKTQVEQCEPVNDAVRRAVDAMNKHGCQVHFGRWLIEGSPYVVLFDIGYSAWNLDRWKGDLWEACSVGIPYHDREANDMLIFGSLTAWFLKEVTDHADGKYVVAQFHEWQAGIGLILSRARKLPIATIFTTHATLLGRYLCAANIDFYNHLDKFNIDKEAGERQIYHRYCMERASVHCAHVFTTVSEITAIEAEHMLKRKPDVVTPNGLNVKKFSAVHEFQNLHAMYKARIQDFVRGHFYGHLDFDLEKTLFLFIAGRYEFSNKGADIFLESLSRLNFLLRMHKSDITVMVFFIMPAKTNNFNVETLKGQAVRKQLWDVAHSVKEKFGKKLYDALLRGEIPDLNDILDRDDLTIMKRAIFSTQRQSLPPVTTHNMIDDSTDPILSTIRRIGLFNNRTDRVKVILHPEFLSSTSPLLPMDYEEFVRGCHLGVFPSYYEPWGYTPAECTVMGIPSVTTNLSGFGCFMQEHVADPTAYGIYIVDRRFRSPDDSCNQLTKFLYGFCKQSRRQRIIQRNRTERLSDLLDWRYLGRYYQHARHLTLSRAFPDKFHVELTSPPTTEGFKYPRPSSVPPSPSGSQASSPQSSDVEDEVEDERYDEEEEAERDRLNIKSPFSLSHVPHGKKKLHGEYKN
Chain of hGYS2 enzyme (recombinant hGYS2/GN1 protein) (P46976 whole entry partner): as the sequence (P46976 whole entry partner) above

Turning to `Cc1cn(CC(=O)N2C[C@H](F)C[C@H]2C(=O)N[C@@H](c2ccccc2)c2ccc(C(C)C)c(F)n2)c(=O)n(C)c1=O` (relative stereo) [Compound 777, (2S,4R)-1-[2-(3,5-dimethyl-2,4-dioxo-1,2,3,4-tetrahydropyrimidin-1-yl)acetyl]-4-fluoro-N-[(R*)-[6-fluoro-5-(propan-2-yl)pyridin-2-yl](phenyl)methyl] pyrrolidine-2-carboxamide], the IC50 in assay [1] is above 100000 nM; in assay [2], 42 nM. The matching figures for `CC(=O)N1C[C@H](F)C[C@H]1C(=O)NC(c1ccccc1)c1ccc(C2CCC2)cn1` (single isomer, unassigned) [Compound 603, (2S,4R)-1-acetyl-N-[(S) or (R)-(5-cyclobutylpyridin-2-yl) (phenyl)methyl]-4-fluoropyrrolidine-2-carboxamide]: above 100000 nM and 602 nM. On the same counts, the results for `CC(C)c1ccc(C(NC(=O)[C@@H]2C[C@@H](F)CN2C(=O)Cc2cnn[nH]2)c2ccc(N)nc2)cc1F` (single isomer, unassigned) [Compound 620, (2S,4R)-N-[(R) or (S)-(6-aminopyridin-3-yl)[3-fluoro-4-(propan-2-yl)phenyl]methyl]-4-fluoro-1-[2-(1H-1,2,3-triazol-5-yl)acetyl]pyrrolidine-2-carboxamide] are above 100000 nM and 142 nM. As for `CC(C)c1c(F)cc(C(NC(=O)[C@@H]2C[C@@H](F)CN2C(=O)Cc2ncco2)c2ccccc2)cc1F` (single isomer, unassigned) [Compound 661, (2S,4R)-N-[(S) or (R)-[3,5-difluoro-4-(propan-2-yl)phenyl](phenyl)methyl]-4-fluoro-1-[2-(1,3-oxazol-2-yl)acetyl]pyrrolidine-2-carboxamide], the figures for the IC50 in assay [1] and in assay [2] were above 100000 nM and 43 nM, respectively. For the molecule `O=C(NC(c1ccccc1)c1cc(F)c(C2CC2)c(F)c1)[C@@H]1C[C@@H](F)CN1C(=O)Cc1ncco1` (single isomer, unassigned) [Compound 662], the IC50 in assay [1] is above 100000 nM; in assay [2], 227 nM. On the same counts, the results for `CC(C)c1ccc([C@@H](NC(=O)[C@@H]2C[C@@H](F)CN2C(=O)C(C)n2cnnn2)c2ccccc2)cc1F` (single isomer, unassigned) [Compound 767, (2S,4R)-4-fluoro-N-[(S)-[3-fluoro-4-(propan-2-yl)phenyl](phenyl)methyl]-1-[(2S) or (2R)-2-(1H-1,2,3,4-tetrazol-1-yl)propanoyl]pyrrolidine-2-carboxamide] are above 100000 nM and 106 nM. The matching figures for `CC(C)c1ccc([C@@H](NC(=O)[C@@H]2C[C@@H](F)CN2C(=O)C(C)c2cnn[nH]2)c2ccccc2)cc1F` (single isomer, unassigned) [Compound 770, (2S,4R)-4-fluoro-N-[(S)-[3-fluoro-4-(propan-2-yl)phenyl](phenyl)methyl]-1-[(2S) or (2R)-2-(1H-1,2,3-triazol-5-yl)propanoyl]pyrrolidine-2-carboxamide]: above 100000 nM and 62 nM. The matching figures for `CC(=O)N1CC[C@@]2(C1)C(=O)NCC2C(=O)N1C[C@H](F)C[C@H]1C(=O)N[C@@H](c1ccccc1)c1ccc(C(C)C)cc1` (stereo in doubt) [Compound 6, (2S,4R)-1-[(4S,5R)-7-acetyl-7-oxo-2,7-diazaspiro[4.4]nonane-4-carbonyl]-4-fluoro-N-[(S)-phenyl[4-(propan-2-yl)phenyl]methyl]pyrrolidine-2-carboxamide]: above 100000 nM and 211 nM.

Consider `CC(C)c1ccc([C@@H](NC(=O)[C@@H]2C[C@@H](F)CN2C(=O)Cc2ccnn2C)c2ccccc2)cc1` (stereo in doubt) [Compound 220, (2S,4RS)-4-fluoro-1-[2-(1-methyl-1H-pyrazol-5-yl)acetyl]-N-[(S)-phenyl[4-(propan-2-yl)phenyl]methyl]pyrrolidine-2-carboxamide], for which the IC50 in assay [1] is above 100000 nM; in assay [2], 38 nM. The matching figures for `CC(C)c1ccc([C@@H](NC(=O)[C@@H]2C[C@@H](F)CN2C(=O)Cn2cccn2)c2ccccc2)cc1` (stereo in doubt) [Compound 221, (2S,4RS)-4-fluoro-N-[(S)-phenyl[4-(propan-2-yl)phenyl]methyl]-1-[2-(1H-pyrazol-1-yl)acetyl]pyrrolidine-2-carboxamide]: above 100000 nM and 43 nM. On the same counts, the results for `CC(C)c1ccc([C@@H](NC(=O)[C@@H]2C[C@@H](F)CN2C(=O)Cn2ccnn2)c2ccccc2)cc1` (stereo in doubt) [Compound 222, (2RS,4R)-4-fluoro-N-[(S)-phenyl[4-(propan-2-yl)phenyl]methyl]-1-[2-(1H-1,2,3-triazol-1-yl)acetyl]pyrrolidine-2-carboxamide] are above 100000 nM and 40 nM. Regarding `CC(C)c1ccc([C@@H](NC(=O)[C@@H]2C[C@@H](F)CN2C(=O)Cc2nn[nH]n2)c2ccccc2)cc1` (stereo in doubt) [Compound 223, (2RS,4R)-4-fluoro-N-[(S)-phenyl[4-(propan-2-yl)phenyl]methyl]-1-[2-(2H-1,2,3,4-tetrazol-5-yl)acetyl]pyrrolidine-2-carboxamide], the IC50 is above 100000 nM in assay [1] and 62 nM in assay [2]. On the same counts, the results for `CC(C)c1ccc([C@@H](NC(=O)[C@@H]2C[C@@H](F)CN2C(=O)Cc2nnco2)c2ccccc2)cc1` (stereo in doubt) [Compound 224, (2RS,4R)-4-fluoro-1-[2-(1,3,4-oxadiazol-2-yl)acetyl]-N-[(S)-phenyl[4-(propan-2-yl)phenyl]methyl]pyrrolidine-2-carboxamide] are above 100000 nM and 70 nM. As for `CC(C)c1ccc([C@@H](NC(=O)[C@@H]2C[C@@H](F)CN2C(=O)Cc2ncccn2)c2ccccc2)cc1` [Compound 28, (2S,4R)-4-fluoro-N-[(S)-phenyl[4-(propan-2-yl)phenyl]methyl]-1-[2-(pyrimidin-2-yl)acetyl]pyrrolidine-2-carboxamide], the IC50 in assay [1] was above 100000 nM.

With `Cc1nc(CC(=O)N2C[C@H](F)C[C@H]2C(=O)N[C@@H](c2ccccc2)c2ccc(C3CC3)c(F)n2)oc1C` [Compound 761, (2S,4R)-N-[(S)-(5-cyclopropyl-6-fluoropyridin-2-yl)(phenyl)methyl]-1-[2-(4,5-dimethyl-1,3-oxazol-2-yl)acetyl]-4-fluoropyrrolidine-2-carboxamide], in assay [2], the IC50 is 55 nM. On to `O=C(N[C@@H](c1ccccc1)c1ccc(C2CC2)c(F)n1)[C@@H]1C[C@@H](F)CN1C(=O)Cn1nncc1N1CCC1` [Compound 762, (2S,4R)-1-{2-[5-(azetidin-1-yl)-1H-1,2,3-triazol-1-yl]acetyl}-N-[(S)-(5-cyclopropyl-6-fluoropyridin-2-yl)(phenyl)methyl]-4-fluoropyrrolidine-2-carboxamide], for which the IC50 in assay [2] came to 27 nM. On to `O=C(N[C@@H](c1ccccc1)c1ccc(C2CC2)c(F)n1)[C@@H]1[C@@H](O)[C@H](F)CN1C(=O)Cn1nnnc1C(F)F` [Compound 763, (2S,3R,4R)-N-[(S)-(5-cyclopropyl-6-fluoropyridin-2-yl)(phenyl)methyl]-1-{2-[5-(difluoromethyl)-1H-1,2,3,4-tetrazol-1-yl]acetyl}-4-fluoro-3-hydroxypyrrolidine-2-carboxamide], for which the IC50 in assay [2] amounted to 466 nM. Take `O=C(N[C@@H](c1ccccc1)c1ccc(C2CC2)c(F)n1)[C@@H]1[C@H](O)[C@@H](F)CN1C(=O)Cn1nnnc1C(F)F` [Compound 764, (2S,3S,4S)-N-[(S)-(5-cyclopropyl-6-fluoropyridin-2-yl)(phenyl)methyl]-1-{2-[5-(difluoromethyl)-1H-1,2,3,4-tetrazol-1-yl]acetyl}-4-fluoro-3-hydroxypyrrolidine-2-carboxamide]: the IC50 in assay [2] was found to be 155 nM. Still for that read-out and setting: the figure for `CC(C)c1ccc([C@@H](NC(=O)[C@@H]2C[C@@H](F)CN2C(=O)Cn2nncc2N2CCC2)c2ccccc2)nc1F` [Compound 808, (2S,4R)-1-{2-[5-(azetidin-1-yl)-1H-1,2,3-triazol-1-yl]acetyl}-4-fluoro-N-[(S)-[6-fluoro-5-(propan-2-yl)pyridin-2-yl](phenyl)methyl] pyrrolidine-2-carboxamide] is 12 nM.
